Measurements published in patent US6900194B1, “Use of substituted 4-biarylbutyric and 5-biarylpentanoic acid derivatives as matrix metalloprotease inhibitors for the treatment of respiratory diseases” (Bayer Aktiengesellschaft, priority 1998, dated 2005).

Experiments:
[1] = target: T1, MMP-12 (Macrophage Elastase) (Homo sapiens, UniProt P39900); assay: P218 quenched fluorescence assay, MMP-12; assay type: biochemical; details: table 3
T1 construct: made in house; host or cells: E. coli BL21 (DE3)
T1 sequence (P39900 106-470): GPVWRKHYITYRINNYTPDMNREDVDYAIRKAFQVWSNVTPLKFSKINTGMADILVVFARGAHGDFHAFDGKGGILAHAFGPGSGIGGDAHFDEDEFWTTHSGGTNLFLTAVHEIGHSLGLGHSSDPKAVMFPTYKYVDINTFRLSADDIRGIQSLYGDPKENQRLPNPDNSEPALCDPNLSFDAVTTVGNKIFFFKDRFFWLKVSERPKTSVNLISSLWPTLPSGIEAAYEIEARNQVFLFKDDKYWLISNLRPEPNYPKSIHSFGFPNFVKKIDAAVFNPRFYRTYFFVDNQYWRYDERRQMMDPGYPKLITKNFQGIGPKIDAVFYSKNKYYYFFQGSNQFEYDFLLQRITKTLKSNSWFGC
Source text: P218 Quenched Fluorescence Assay for MMP Inhibition:
This assay is adapted from the one described by Knight et al., FEBS Letters, 296, 263-266 (1992) for MMP-3 and a related substrate. The rate of hydrolysis of the synthetic substrate H-MCA-Pro-Lys-Pro-Leu-Ala-Leu-DPA-Ala-Arg-NH2 (P218) by the respective MMPs is monitored fluorometrically, using an excitation wavelength of 340 nm and an emission wavelength of 395 nm, in the presence or absence of the test compounds. The substrate is made up initially in 100% DMSO to a concentration of 1×10^−2 M, then diluted in assay buffer to a final concentration of 20 μM. Test compounds (10 mM in DMSO) are diluted in assay buffer at an initial concentration of 0.3-1000 nM. These are diluted to a final concentration in the assay from 0.03 nM to 100 nM. The reaction is initiated by the addition of substrate at a final concentration of 20 μM. The total assay volume in a 96 well microtitre plate is 150 μl, Cleavage of the substrate between the Leu-Ala residues allows the fluorescence of the MCA group to be detected on a fluorometer (Cytofluor II) following excitation at 340 nm and emission at 395 nm. Change in fluorescence is continually monitored for a 40 min period.
The Ki's are calculated using the method described by Williams and Morrison, Methods in Enzymology, 63, 437-467 (1979) to measure Ki apparent for tight binding inhibitors, and is summarised as follows: [I]0/(1−vi/v0)=Ki apparent ×vi/v0+[E]0 [I]0 and [E]0 are inhibitor and enzyme concentrations, and vi/v0 are reaction velocities with/without inhibitor. [I]0 is equal to IC50 when vi is half v0, so that: IC50=0.5×[E]0+Ki apparent
IC50's are determined at each enzyme concentration using Xlfit software. Ki apparent is then determined graphically from the plot of IC50 versus MMP concentration, using the intercepts to estimate Ki apparent. Thus, intercept values at IC50=0 and [E]0=0 are equal to −2×Ki apparent and Ki apparent, respectively. IC50 values are calculated using % inhibition values at each enzyme concentration, ensuring data is taken from the linear part of the reaction rate curves. The Ki can then be calculated from the equation: Ki=Ki apparent/[…] where S=substrate concentration and Km=dissociation constant.
The assay conditions are modified as follows for each of the MMPs used:
MMP-12 (Macrophage Elastase)
[…] is isolated according to the following procedure: Human GenePool cDNA libraries from human lung, spleen, and brain were obtained from Invitrogen (Groningen, The Netherlands). HPLC-purified oligonucleotides were purchased from BioTez (Berlin, Germany), E. coli strain DH5α from Life Technologies (Heidelberg, Germany), strain BL21(DE3) from Novagen (Heidelberg, Germany). Pfu DNA-Polymerase and pBlueScriptII-KS(+) were from Stratagene (Heidelberg, Germany). DNA plasmid and DANN gel isolation kits were purchased from Qiagen (Hilden, Germany). All restriction enzymes and DNA modifying enzymes were ordered from New England Biolabs (Schwalbach, Germany). HiTrapQ (5 ml) was from Pharmacia Biotech (Freiburg, Germany). Vydac C4-RP HPLC columns (214TP54: 300 Å, 5 μm, 4.6×250 mm; 214TP1022: 300 Å, 10 μm, 22×250 mm) were from Promochem (Wesel, Germany). Fluorogenic substrate P218 was purchased from Polypeptide Laboratories (Wolfenbüttel, Germany). Ultrapure urea was purchased from Schwarz-Mann (Cleveland, Ohio). Ready-to-use NuPAGE 10% Bis-Tris Polyacrylamide SDS-PAGE gels and NuPAGE 20×MOPS running buffer were obtained from Novex (Frankfurt/Main, Germany) 10% AMPA and all other chemicals were from Sigma (Deisenhofen, Germany). […]

[2] = system: Human alveolar macrophages; details: read-out: IC50, inhibition of MCP-1-induced trafficking of human alveolar macrophages across artificial basement membrane; Matrigel; human MCP-1 5 ng/ml; 48-98 h; + or − lipopolysaccharide
Description: (§1) In vitro Functional Tests • 1. Human alveolar macrophages • Human alveolar macrophages were obtained by bronchoscopy of healthy smoking volunteers. Cells were spun and resuspended at 2×10^6/ml. Trafficking of alveolar macrophages (+or −lipopolysaccharide 2.5 μg.ml) across an artificial basement membrane (Matrigel) was induced by human MCP-1 (5 ng/ml) over a 48-98 h period. […] Murine peritoneal macrophages • Murine macrophages were obtained from mice 5 days after an intraperitoneal injection of thioglycollate. Cells were spun and resuspended at 2×10^6/ml. Trafficking of peritoneal macrophages across an artificial basement membrane (Matrigel) was induced by murine MCP-1 (5 ng/ml) over a 48-98 h period. […] LPS Induced TNFα Production in Mice

[3] = system: Murine peritoneal macrophages; details: read-out: IC50, inhibition of trafficking of murine peritoneal macrophages across artificial basement membrane; Matrigel; murine MCP-1 5 ng/ml; 48-98 h
Description: as §1

SMILES | IC50 [1] [nM] | IC50 [2] [nM] | IC50 [3] [nM]
CCCCCOc1ccc(-c2ccc(C(=O)CC(CCN3C(=O)c4ccccc4C3=O)C(=O)O)cc2)cc1 (stereo not shown) [C-III] | 2.8 | – | –
O=C(CC(CCN1C(=O)c2ccccc2C1=O)C(=O)O)c1ccc(-c2ccc(OCc3ccccc3)cc2)cc1 (stereo not shown) [C-XXII] | 1.6 | – | –
CCCOc1ccc2c(c1)C(=O)N(CCC(CC(=O)c1ccc(-c3ccc(Cl)cc3)cc1)C(=O)O)C2=O (stereo not shown) [C-V] | 1.7 | – | –
O=C(c1ccc(-c2ccc(Cl)cc2)cc1)C1CCC(CN2C(=O)c3ccccc3C2=O)C1C(=O)O (stereo not drawn) [(1α,2β,5β)-2-{[4′-chloro(1,1′-biphenyl)-4-yl]carbonyl}-5-[(1,3-dihydro-1,3-dioxo-2H-isoindol-2-yl)methyl]-cyclopentane carboxylic acid] | – | ≤ 1000 | ≤ 1000

The next lines start with results.

IC50 [1] [nM] | SMILES | IC50 [2] [nM] | IC50 [3] [nM]
1 | O=C(O)[C@H]1[C@H](CN2C(=O)c3cc4ccccc4cc3C2=O)CC[C@@H]1C(=O)c1ccc(-c2ccc(Cl)cc2)cc1 (racemic) [C-XVIII] | – | –
4.5 | O=C(O)[C@H]1[C@H](CN2C(=O)c3cc(Cl)c([N+](=O)[O-])cc3C2=O)CC[C@@H]1C(=O)c1ccc(-c2ccc(Cl)cc2)cc1 (racemic) [C-XXX] | – | –
